# Experimental data from patent US20250052985A1, “SYSTEM AND METHOD FOR QUANTITATIVE PHASE IMAGING FOR MULTI-PARAMETRIC SCREENING OF TUMOR THERAPY RESPONSE” (UNIVERSITY OF UTAH RESEARCH FOUNDATION, priority 2023, published 2025).
# Where “and” joins values, the source holds several entries; their conditions need not be identical. Equal values may be shown once.
# Key:
# BT-474 cells [1] = assay: CellTiter-Glo (CTG) ATP viability assay, BT-474; assay type: cell-based; settings: for Min Asymptote: BT-474, Hill fit of luminescence normalized to solvent control, one line per replicate; for EC50: Homo sapiens, read-out: log10(EC50) (converted)
# How it was run: (§1)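 Cell viability was read as ATP content by CellTiter-Glo luminescence after replacing media with reagent, shaking 20 min and resting 10 min. Signal was normalized to solvent control, and a 4-parameter Hill fit to the dose response gave EC50 and depth of response.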
# BT-474 cells [2] = assay: cells; settings: for Max Asymptote / Min Asymptote: BT-474, 4-parameter Hill fit of mean SGR vs concentration, one line per replicate
# How it was run: (§2)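 Breast cancer lines imaged noninvasively by DPC-based quantitative phase imaging across 6-point dose responses in triplicate with solvent controls, for 24 h or 72 h after 3 h equilibration, then CellTiter-Glo ATP viability. Mean specific growth rate fitted to a 4-parameter Hill curve for EC50, with an F-test (p<0.01) against a flat line to determine response.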
# MCF-7 cells [3] = assay: cells; settings: for Max Asymptote / Min Asymptote: MCF-7, 4-parameter Hill fit of mean SGR vs concentration, one line per replicate; for Hill Slope: MCF-7, Hill fit
# How it was run: as §2
# MDA-MB-231 cells = assay: Quantitative phase imaging (QPI) growth response, MDA-MB-231; assay type: cell-based; design: DoR QPI: scale not given here; ToR 20 μM: unit not given here; settings: for Max Asymptote / Min Asymptote: MDA-MB-231, 4-parameter Hill fit of mean SGR vs concentration, one line per replicate
# How it was run: as §2
# MCF-7 cells [4] = assay: CellTiter-Glo (CTG) ATP viability assay, MCF-7; assay type: cell-based; settings: for EC50: Homo sapiens
# How it was run: as §1
structure (smiles),measurement,setting,value
CC(=O)O[C@@]12CO[C@@H]1C[C@H](O)[C@@]1(C)C(=O)[C@H](O)C3=C(C)[C@@H](OC(=O)[C@H](O)[C@@H](NC(=O)OC(C)(C)C)c4ccccc4)C[C@@](O)([C@@H](OC(=O)c4ccccc4)[C@H]21)C3(C)C [Docetaxel],Hill Slope,"BT-474 cells [1]; 24 h CTG, BT-474, Hill fit",7.175
same,Min Asymptote,BT-474 cells [1]; 24 h CTG,0.8491
same,Hill Slope,"BT-474 cells [1]; 72 h CTG, BT-474, Hill fit",7.938 and 5.667
same,log10(EC50),"BT-474 cells [1]; 72 h CTG, BT-474, Hill fit",2.403
same,Min Asymptote,BT-474 cells [1]; 72 h CTG,0.2805 and 0.3348
same,DoR CTG,"BT-474 cells [1]; BT-474 cell line, depth of response, CellTiter-Glo",0.6
same,EC50,"BT-474 cells [1]; BT-474, 24 h, 24 h CTG, BT-474, Hill fit",13.7 nM
same,EC50,"BT-474 cells [1]; BT-474, 72 h, 72 h CTG, BT-474, Hill fit",3.34 nM
same,Max Asymptote,BT-474 cells [2]; 24 h QPI,0.009874 and 0.01051
same,Min Asymptote,BT-474 cells [2]; 24 h QPI,0.00518 and 0.00803
same,Hill Slope,"BT-474 cells [2]; 24 h QPI, BT-474, Hill fit",0.2745 and 0.5361
same,Max Asymptote,BT-474 cells [2]; 72 h QPI,0.00164 and 0.002702
same,Min Asymptote,BT-474 cells [2]; 72 h QPI,0.009387 and 0.007464
same,Hill Slope,"BT-474 cells [2]; 72 h QPI, BT-474, Hill fit",3.8183 and 2.5139
same,log10(EC50),"BT-474 cells [2]; 72 h QPI, BT-474, Hill fit, EC50 in μM per Table 1",2.1891
same,growth rate and heterogeneity over time,"BT-474 cells [2]; BT-474, 0.016 μM",decreased growth rate and increased heterogeneity
same,growth rate and heterogeneity over time,"BT-474 cells [2]; BT-474, 0.4 μM",reduced growth rate and increased heterogeneity
same,growth rate and heterogeneity over time,"BT-474 cells [2]; BT-474, 2 μM",population heterogeneity is increased and growth rate decreases
same,growth rate and heterogeneity over time,"BT-474 cells [2]; BT-474, 20 μM","decreases, while the heterogeneity for both populations increases"
same,change of population spread (SD) of SGR,"BT-474 cells [2]; BT-474, 20 μM, with significant decrease in mean response",no significant change to the spread
same,response of growth rate and heterogeneity to treatment,"BT-474 cells [2]; BT-474, FIG. 5E, 22, 23",both reduced growth rate and slightly increased heterogeneity
same,DoR QPI,"BT-474 cells [2]; BT-474 cell line, depth of response, QPI",0.8
same,ToR 20 μM,"BT-474 cells [2]; BT-474 cell line, time of response at 20 μM",10.9
same,EC50,"BT-474 cells [2]; Homo sapiens, BT-474, 72 h, read-out: log10(EC50), 72 h QPI, BT-474, Hill fit (converted), EC50 in μM per Table 1",0.00383 µM
same,Max Asymptote,MCF-7 cells [3]; 24 h QPI,0.02457 and 0.02891 and 0.02213
same,Min Asymptote,MCF-7 cells [3]; 24 h QPI,0.01057 and 0.01168 and 0.008144
same,Hill Slope,MCF-7 cells [3]; 24 h QPI,1.6196 and 1.4393 and 1.4829
same,Max Asymptote,MCF-7 cells [3]; 72 h QPI,0.00408 and 0.005816 and 0.004488
same,Min Asymptote,MCF-7 cells [3]; 72 h QPI,0.021 and 0.02567 and 0.0188
same,Hill Slope,MCF-7 cells [3]; 72 h QPI,1.6038 and 0.9248 and 1.3228
same,EC50,"MCF-7 cells [3]; Homo sapiens, MCF7, read-out: EC50, QPI, MCF-7 cell line, QPI growth rate",0.912 nM
same,DoR QPI,"MCF-7 cells [3]; MCF-7 cell line, depth of response, QPI",0.8
same,ToR 20 μM,"MCF-7 cells [3]; MCF-7 cell line, time of response at 20 μM",5.9
same,Max Asymptote,MDA-MB-231 cells; 24 h QPI,0.03347 and 0.03066 and 0.02364
same,Min Asymptote,MDA-MB-231 cells; 24 h QPI,0.01673 and 0.01578 and 0.02364
same,Max Asymptote,MDA-MB-231 cells; 72 h QPI,0.01382 and 0.01017 and 0.02742
same,Min Asymptote,MDA-MB-231 cells; 72 h QPI,0.04028 and 0.02962 and 0.02742
same,EC50,"MDA-MB-231 cells; Homo sapiens, MDA-MB-231, MDA-MB-231 cell line, EC50 of the standard deviation, read-out: EC50, SD (converted)",1.11 nM
same,growth rate and heterogeneity over time,MDA-MB-231 cells; MDA-MB-231,decrease in growth rate and heterogeneity simultaneously
same,growth rate and heterogeneity over time,"MDA-MB-231 cells; MDA-MB-231, 0.4 μM",decrease in growth rate and heterogeneity simultaneously
same,growth rate and heterogeneity over time,"MDA-MB-231 cells; MDA-MB-231, 2 μM",decrease in growth rate and heterogeneity simultaneously
same,SGR distribution over 72 h,"MDA-MB-231 cells; MDA-MB-231, 20 μM",distinctive long tail of non-responders that persists at 72 h
same,growth rate and heterogeneity over time,"MDA-MB-231 cells; MDA-MB-231, 20 μM",decrease in growth rate and heterogeneity simultaneously
same,growth rate and heterogeneity over time,"MDA-MB-231 cells; MDA-MB-231, lowest concentrations, FIG. 21 G-H",growth rate decreases over time with little change in heterogeneity
same,DoR QPI,"MDA-MB-231 cells; MDA-MB-231 cell line, depth of response, QPI",0.7
same,ToR 20 μM,"MDA-MB-231 cells; MDA-MB-231 cell line, time of response at 20 μM",3.5
same,Hill Slope,"MCF-7 cells [4]; 72 h CTG, MCF-7, Hill fit",5.079 and 4.965
same,log10(EC50),"MCF-7 cells [4]; 72 h CTG, MCF-7, Hill fit",3.291
same,Min Asymptote,"MCF-7 cells [4]; 72 h CTG, MCF-7, Hill fit of luminescence normalized to solvent control, one line per replicate",0.368 (2×) and 0.4065
same,EC50,"MCF-7 cells [4]; MCF7, 72 h, 72 h CTG, MCF-7, Hill fit, read-out: log10(EC50) (converted)",0.455 nM
same,EC50,"MCF-7 cells [4]; MCF7, MCF-7 cell line, CellTiter-Glo, read-out: EC50, CTG (converted)",0.501 nM
same,DoR CTG,"MCF-7 cells [4]; MCF-7 cell line, depth of response, CellTiter-Glo",0.6
